Paper PMC9772100 (ACS chemical biology, 2022)
Read-outs that look alike come from different tables or passages of the source.

T1: PfHGXPRT (Plasmodium falciparum, UniProt P20035)
T1 sequence (P20035 1-231): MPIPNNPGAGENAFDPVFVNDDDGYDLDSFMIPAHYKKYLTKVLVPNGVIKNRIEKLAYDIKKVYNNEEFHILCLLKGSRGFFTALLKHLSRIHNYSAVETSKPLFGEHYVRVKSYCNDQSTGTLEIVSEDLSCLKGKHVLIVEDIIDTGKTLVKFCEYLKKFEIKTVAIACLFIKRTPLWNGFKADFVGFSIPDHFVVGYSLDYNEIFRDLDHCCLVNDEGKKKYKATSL


Columns and labels:
PfHGXPRT = biological target: T1, PfHGXPRT; test: PfHGXPRT steady-state kinetics; format: biochemical
[1] = substrate: O=c1[nH]cnc2nc[nH]c12; test: purified protein, by the assay type; settings: other: unactivated enzyme; pH 7.4

Molecule | Km (PfHGXPRT; read-out: Km, activated PfHGXPRT, substrate-activated enzyme) [µM] | Km (PfHGXPRT; read-out: Km, unactivated PfHGXPRT, unactivated enzyme) [µM] | Km [1] [µM]
O=P(O)(O)OC[C@H]1O[C@H](OP(=O)(O)OP(=O)(O)O)[C@H](O)[C@@H]1O [PRPP, 5-phospho-α-D-ribosyl 1-pyrophosphate] | 185 ± 14 | 55 ± 11 | 
PfHGXPRT (Plasmodium falciparum FCR-3/Gambia) (protein) MPIPNNPGAGENAFDPVFVNDDDGYDLDSFMIPAHYKKYLTKVLVPNGVIKNRIEKLAYDIKKVYNNEEFHILCLLKGSRGFFTALLKHLSRIHNYSAVETSKPLFGEHYVRVKSYCNDQSTGTLEIVSEDLSCLKGKHVLIVEDIIDTGKTLVKFCEYLKKFEIKTVAIACLFIKRTPLWNGFKADFVGFSIPDHFVVGYSLDYNEIFRDLDHCCLVNDEGKKKYKATSL |  |  | 2.7 ± 0.3
